Measurements reported in patent US20020035061A1, “COMPOSITIONS AND METHODS FOR TREATING INFECTIONS USING CATIONIC PEPTIDES ALONE OR IN COMBINATION WITH ANTIBIOTICS” (priority 1996, published 2002).

Key:
Experiment in all cases: microbe, parasite or virus in culture
Assay type in all cases: cell-based
bacterial isolates = tested on: bacterial isolates
[1] = tested on: inherently resistant microorganisms; conditions: B. cepacia
[2] = tested on: microorganisms with acquired resistance
[3] = tested on: vancomycin / teicoplanin resistant enterococci; conditions: for Vancomycin MIC + Peptide: in combination with the labelled peptide; for Peptide MIC + Vancomycin: in combination with vancomycin
S. aureus = S. aureus SA25

KWKSFIKKLTSAAKKVLTTGLPALIS [MBI 29A3]
Peptide MIC Alone (bacterial isolates; 1. Amikacin, B. cepacia BC003): >128 µg/mL | Peptide MIC Alone (bacterial isolates; 1. Amikacin, B. cepacia BC005): >128 µg/mL | Peptide MIC Alone (bacterial isolates; 1. Amikacin, E. faecium EFM004): 8 µg/mL | Peptide MIC Alone (bacterial isolates; 1. Amikacin, S. maltophilia SMA036): 64 µg/mL | Peptide MIC Alone (bacterial isolates; 1. Amikacin, S. maltophilia SMA063): 8 µg/mL | Peptide MIC Alone (bacterial isolates; 1. Amikacin, S. maltophilia SMA064): 8 µg/mL | Peptide MIC Alone (bacterial isolates; 4. Gentamicin, S. maltophilia SMA019): 2 µg/mL | Peptide MIC Alone (bacterial isolates; 4. Gentamicin, S. maltophilia SMA021): 2 µg/mL | Amikacin MIC + Peptide (bacterial isolates; B. cepacia BC003): 8 µg/mL | Peptide MIC + Amikacin (bacterial isolates; B. cepacia BC003): 64 µg/mL | Amikacin MIC + Peptide (bacterial isolates; B. cepacia BC005): 32 µg/mL | Peptide MIC + Amikacin (bacterial isolates; B. cepacia BC005): 32 µg/mL | Peptide MIC + Vancomycin (bacterial isolates; E. faecalis EFS003): 2 µg/mL | Vancomycin MIC + Peptide (bacterial isolates; E. faecalis EFS003): 2 µg/mL | Peptide MIC + Vancomycin (bacterial isolates; E. faecalis EFS005): 1 µg/mL | Vancomycin MIC + Peptide (bacterial isolates; E. faecalis EFS005): 4 µg/mL | Peptide MIC + Vancomycin (bacterial isolates; E. faecalis EFS011): 8 µg/mL | Vancomycin MIC + Peptide (bacterial isolates; E. faecalis EFS011): 4 µg/mL | Peptide MIC + Vancomycin (bacterial isolates; E. faecalis EFS014): 0.5 µg/mL | Vancomycin MIC + Peptide (bacterial isolates; E. faecalis EFS014): 1 µg/mL | Amikacin MIC + Peptide (bacterial isolates; E. faecium EFM004): 8 µg/mL | Peptide MIC + Amikacin (bacterial isolates; E. faecium EFM004): 4 µg/mL | Peptide MIC + Vancomycin (bacterial isolates; E. faecium EFM006): 2 µg/mL | Vancomycin MIC + Peptide (bacterial isolates; E. faecium EFM006): 4 µg/mL | Mupirocin MIC + Peptide (bacterial isolates; P. aeruginosa PA2): 0.1 µg/mL | Peptide MIC + Mupirocin (bacterial isolates; P. aeruginosa PA2): 16 µg/mL | Mupirocin MIC + Peptide (bacterial isolates; P. aeruginosa PA3): 0.1 µg/mL | Peptide MIC + Mupirocin (bacterial isolates; P. aeruginosa PA3): 8 µg/mL | Peptide MIC + Tobramycin (bacterial isolates; P. aeruginosa PA022): 0.25 µg/mL | Tobramycin MIC + Peptide (bacterial isolates; P. aeruginosa PA022): 4 µg/mL | Ciprofloxacin MIC + Peptide (bacterial isolates; P. aeruginosa PA24): 16 µg/mL | Peptide MIC + Ciprofloxacin (bacterial isolates; P. aeruginosa PA24): 0.125 µg/mL | Peptide MIC + Tobramycin (bacterial isolates; P. aeruginosa PA028): 0.125 µg/mL | Tobramycin MIC + Peptide (bacterial isolates; P. aeruginosa PA028): 16 µg/mL | Peptide MIC + Tobramycin (bacterial isolates; P. aeruginosa PA029): 0.125 µg/mL | Tobramycin MIC + Peptide (bacterial isolates; P. aeruginosa PA029): 16 µg/mL | Ciprofloxacin MIC + Peptide (bacterial isolates; P. aeruginosa PA41): 0.5 µg/mL | Peptide MIC + Ciprofloxacin (bacterial isolates; P. aeruginosa PA41): 4 µg/mL | Ciprofloxacin MIC + Peptide (bacterial isolates; S. aureus SA10): 16 µg/mL | Peptide MIC + Ciprofloxacin (bacterial isolates; S. aureus SA10): 0.5 µg/mL | Ciprofloxacin MIC + Peptide (bacterial isolates; S. aureus SA25): 2 µg/mL | Peptide MIC + Ciprofloxacin (bacterial isolates; S. aureus SA25): 0.125 µg/mL | Gentamicin MIC + Peptide (bacterial isolates; S. maltophilia SMA019): 16 µg/mL | Peptide MIC + Gentamicin (bacterial isolates; S. maltophilia SMA019): 0.125 µg/mL | Gentamicin MIC + Peptide (bacterial isolates; S. maltophilia SMA021): 16 µg/mL | Peptide MIC + Gentamicin (bacterial isolates; S. maltophilia SMA021): 0.125 µg/mL | Peptide MIC + Tobramycin (bacterial isolates; S. maltophilia SMA029): 4 µg/mL | Tobramycin MIC + Peptide (bacterial isolates; S. maltophilia SMA029): 4 µg/mL | Peptide MIC + Tobramycin (bacterial isolates; S. maltophilia SMA030): 4 µg/mL | Tobramycin MIC + Peptide (bacterial isolates; S. maltophilia SMA030): 4 µg/mL | Amikacin MIC + Peptide (bacterial isolates; S. maltophilia SMA036): 32 µg/mL | Peptide MIC + Amikacin (bacterial isolates; S. maltophilia SMA036): 16 µg/mL | Amikacin MIC + Peptide (bacterial isolates; S. maltophilia SMA063): 16 µg/mL | Peptide MIC + Amikacin (bacterial isolates; S. maltophilia SMA063): 4 µg/mL | Amikacin MIC + Peptide (bacterial isolates; S. maltophilia SMA064): 16 µg/mL | Peptide MIC + Amikacin (bacterial isolates; S. maltophilia SMA064): 4 µg/mL | Mupirocin MIC + Peptide (bacterial isolates; S. marcescens SBSM1): 100 µg/mL | Peptide MIC + Mupirocin (bacterial isolates; S. marcescens SBSM1): 16 µg/mL | Mupirocin MIC + Peptide (bacterial isolates; S. marcescens SBSM2): 100 µg/mL | Peptide MIC + Mupirocin (bacterial isolates; S. marcescens SBSM2): 64 µg/mL | FIC (bacterial isolates; peptide + Amikacin, B. cepacia BC003): 0.50 | FIC (bacterial isolates; peptide + Amikacin, B. cepacia BC005): 0.38 | FIC (bacterial isolates; peptide + Amikacin, E. faecium EFM004): 0.56 | FIC (bacterial isolates; peptide + Amikacin, S. maltophilia SMA036): 0.38 | FIC (bacterial isolates; peptide + Amikacin, S. maltophilia SMA063): 0.56 | FIC (bacterial isolates; peptide + Amikacin, S. maltophilia SMA064): 0.56 | FIC (bacterial isolates; peptide + Ciprofloxacin, P. aeruginosa PA24): 0.50 | FIC (bacterial isolates; peptide + Ciprofloxacin, P. aeruginosa PA41): 0.63 | FIC (bacterial isolates; peptide + Ciprofloxacin, S. aureus SA10): 0.75 | FIC (bacterial isolates; peptide + Ciprofloxacin, S. aureus SA25): 0.63 | FIC (bacterial isolates; peptide + Mupirocin, P. aeruginosa PA2): 0.50 | FIC (bacterial isolates; peptide + Mupirocin, P. aeruginosa PA3): 0.50 | FIC (bacterial isolates; peptide + Mupirocin, S. marcescens SBSM1): 0.16 | FIC (bacterial isolates; peptide + Mupirocin, S. marcescens SBSM2): 0.35 | FIC (bacterial isolates; peptide + Vancomycin, E. faecalis EFS003): 0.56 | FIC (bacterial isolates; peptide + Vancomycin, E. faecalis EFS005): 0.28 | FIC (bacterial isolates; peptide + Vancomycin, E. faecalis EFS011): 0.50 | FIC (bacterial isolates; peptide + Vancomycin, E. faecalis EFS014): 0.52 | FIC (bacterial isolates; peptide + Vancomycin, E. faecium EFM006): 0.52 | Peptide MIC + Amikacin [1]: 32 µg/mL | Peptide MIC Alone ([1]; Amikacin section): >128 µg/mL | Gentamicin MIC + Peptide ([2]; A. baumannii ABI002): 4 µg/mL | Peptide MIC + Gentamicin ([2]; A. baumannii ABI002): 1 µg/mL | Peptide MIC Alone ([2]; A. baumannii ABI002, Gentamicin section): 2 µg/mL | Peptide MIC + Tobramycin ([2]; E. coli EC0006): 2 µg/mL | Tobramycin MIC + Peptide ([2]; E. coli EC0006): 2 µg/mL | Peptide MIC Alone ([2]; E. coli EC0006, Tobramycin section): 4 µg/mL | Peptide MIC + Tobramycin ([2]; P. aeruginosa PA022): 0.25 µg/mL | Tobramycin MIC + Peptide ([2]; P. aeruginosa PA022): 4 µg/mL | Peptide MIC Alone ([2]; P. aeruginosa PA022, Tobramycin section): 4 µg/mL | Gentamicin MIC + Peptide ([2]; P. aeruginosa PA041): 4 µg/mL | Peptide MIC + Gentamicin ([2]; P. aeruginosa PA041): 4 µg/mL | Ciprofloxacin MIC + Peptide ([2]; P. aeruginosa PA41): 0.5 µg/mL | Peptide MIC + Ciprofloxacin ([2]; P. aeruginosa PA41): 4 µg/mL | Peptide MIC Alone ([2]; P. aeruginosa PA41, Ciprofloxacin section): 8 µg/mL | Peptide MIC Alone ([2]; P. aeruginosa PA041, Gentamicin section): 8 µg/mL | Peptide MIC ([2]; S. aureus, combination with Mupirocin, in µg/mL): 4 | Peptide MIC + Tobramycin ([2]; S. maltophilia SMA027): 16 µg/mL | Tobramycin MIC + Peptide ([2]; S. maltophilia SMA027): 4 µg/mL | Peptide MIC Alone ([2]; S. maltophilia SMA027, Tobramycin section): 32 µg/mL | Peptide MIC + Tobramycin ([2]; S. maltophilia SMA029): 4 µg/mL | Tobramycin MIC + Peptide ([2]; S. maltophilia SMA029): 4 µg/mL | Peptide MIC Alone ([2]; S. maltophilia SMA029, Tobramycin section): 16 µg/mL | FIC ([2]; peptide + Tobramycin, E. coli EC0006): 0.75 | Amikacin MIC + Peptide ([3]; E. faecium EFM004): 8 µg/mL | Peptide MIC + Amikacin ([3]; E. faecium EFM004): 4 µg/mL | Amikacin MIC + Peptide ([3]; E. faecium EFM020): 16 µg/mL | Peptide MIC + Amikacin ([3]; E. faecium EFM020): 2 µg/mL | Vancomycin MIC + Peptide ([3]; E. faecalis EFS005): 1 µg/mL | Vancomycin MIC + Peptide ([3]; E. faecalis EFS011): 4 µg/mL | Vancomycin MIC + Peptide ([3]; E. faecalis EFS014): 1 µg/mL | Vancomycin MIC + Peptide ([3]; E. faecium EFM006): 4 µg/mL | Peptide MIC + Vancomycin ([3]; E. faecalis EFS005): 4 µg/mL | Peptide MIC + Vancomycin ([3]; E. faecalis EFS011): 8 µg/mL | Peptide MIC + Vancomycin ([3]; E. faecalis EFS014): 0.5 µg/mL | Peptide MIC + Vancomycin ([3]; E. faecium EFM006): 2 µg/mL | Ciprofloxacin MIC + Peptide (S. aureus): 1 µg/mL | Peptide MIC + Ciprofloxacin (S. aureus): 0.5 µg/mL
